Source: patent US12060588B2, “Methods of editing DNA methylation” (Whitehead Institute for Biomedical Research, priority 2016, dated 2024)

Tested on: RHOXF2 promoter region
Assay: Comparison of dCas9- and TALE-based methylation editing, RHOXF2 promoter, bisulfite sequencing in HEK293T cells
Format: cell-based
Procedure: FIGS. 10A-10G depict comparison of TALE- and dCas9-based methylation editing. […] Transfection positive cell populations (cherry+) or (GFP+) were FACS sorted 48-hour post-transfection. Methylation levels of each individual CpG in the p16 promoter region were analyzed by bisulfite sequencing. Shown is the mean percentage±SD of two biological replicates with a total of 34 single colonies sequenced for dCas9-Dnmt3a and 31 single colonies sequenced for TALE-Dnmt3a. Red arrow indicates the position of p16 target gRNA, and purple arrow indicates the binding site for TALE-Dnmt3a. FIG. 10B depicts HEK293T cells were co-transfected with dCas9-Tet1 and one RHOXF2 target gRNA (with puro cassette) or TALE-Tet1 with a puro cassette expressing plasmid. Puromycin (2 ug/ml) was added to the culture medium to select for transfection positive cells. Cells were harvested after 2-day selection for analysis of methylation levels for individual CpGs in the RHOXF2 promoter region by bisulfite sequencing. Shown is the mean percentage±SD of two biological replicates with a total of 34 single colonies sequenced for dCas9-Tet1 and 38 single colonies sequenced for TALE-Tet1. Red arrow indicates the position of RHOXF2 target gRNA, and purple arrow indicates the binding site for […]. […]

dCas9-Tet1: catalytically inactive Cas9 (dCas9) fused through NLS to the Tet1 catalytic domain, SEQ ID NO: 159; lentivirally expressed with gRNAs
region (effective range) of methylation decrease in the RHOXF2 promoter (CpGs with change of methylation greater than 10%): 150 bp | average decrease of methylation in the RHOXF2 promoter (one single gRNA or TALE at the same site, 2-day puromycin selection): 28%
